Measured values: US5164381A, “Pharmacologically active 1,5-diaryl-3-substituted pyrazoles and method for synthesizing the same” (Ortho Pharmaceutical Corporation, priority 1991, dated 1992)
Counter-ions that a name gives are not always drawn.

Test system: Lewis strain laboratory rats
Assay: In vivo alleviation of inflammation: polyarthritis (adjuvant, Mycobacterium butyricum) in rats, inhibition of paw volume increase
Details: Rattus norvegicus, po, rat; read-out: ED50 (effective dose to obtain a 50% inhibition of inflammation)
Description: Polyarthritis was induced in Lewis strain laboratory rats (weight=about 200 grams) by injection of a suspension of Mycobacterium butyricum in mineral oil into the subplantar tissue of the mammal's hind paws. On day 10 after the injection, the rats were assigned to groups, and paw volumes and body weights were recorded. Paw volumes of the contralateral, uninjected hind paw were determined by mercury plethylsmography. Per oral (p.o.) dosing began and continued for five consecutive days thereafter. On day 14 after the initial injection, approximately four hours after the final dose was administered, paw volumes and body weights were recorded and quantitated.
Anti-inflammatory activity of the substituted pyrazole compounds is expressed as the percent inhibition of paw volume increase.

COc1ccc(-n2nc(CCCO)cc2-c2ccc(Cl)cc2)cc1 [Compound 2, 5-(4-Chlorophenyl)-3-(3-hydroxypropyl)-1-(4-methoxyphenyl) pyrazole] and COc1ccc(-n2nc(CCCO)cc2-c2ccc(C)cc2)cc1 [Compound 55, 3-(3-hydroxypropyl)-1-(4-methoxyphenyl)-5-(4-tolyl)pyrazole] are within 1.5-fold of each other in ED50: 3.6 mg/kg for the first, 3.9 mg/kg for the second.

COc1ccc(-n2nc(CCC=O)cc2-c2ccc(Cl)cc2)cc1 [Compound 11, 3-[5-(4-Chlorophenyl)-1-(4-methoxyphenyl)-3-pyrazolyl] propanal] and COc1ccc(-n2nc(CCCO)cc2-c2ccc(C(F)(F)F)cc2)cc1 [Compound 56, 5-(4-trifluoromethylphenyl)-3-(3-hydroxypropyl)-1-(4-methoxyphenyl) pyrazole] are within 1.5-fold of each other in ED50: 2.6 mg/kg for the first, 3 mg/kg for the second.

Same assay, conditions: p.o., rat

With COc1ccc(-n2nc(CCC(=O)O)cc2-c2ccc(Cl)cc2)cc1 [Compound 12, 3-[5-(4-Chlorophenyl)-1-(4-methoxyphenyl)-3-pyrazolyl] propionic acid] the “ED50 (effective dose to obtain a 50% inhibition of inflammation)” value was 5.2 mpk.

Same assay, conditions: p.o., rat; monohydrate

For COc1ccc(-n2nc(CCC(=O)O)cc2-c2ccc(Cl)cc2)cc1 [Compound 13, Sodium 3-[5-(4-chlorophenyl)-1-(4-methoxyphenyl)-3-pyrazoyl] propanoate monohydrate], the “ED50 (effective dose to obtain a 50% inhibition of inflammation)” value was 1.8 mpk.

Same assay, conditions: po, 336 h; 10 mpk p.o., rat; read-out: % INH. p.o. (percentage inhibition of pad swelling)

Work on COc1ccc(-n2nc(CCC(=O)N(C)O)cc2-c2ccc(Cl)cc2)cc1 [Compound 3a, 3-[5-(4-Chlorophenyl)-1-(4-methoxyphenyl)-3-pyrazolyl] -N-hydroxy-N-methylpropanamide sodium salt monohydrate] yielded an inhibition in vivo at 10 mg/kg of 65%.

Same assay, conditions: po, 336 h; 15 mpk p.o., rat; read-out: % INH. p.o. (percentage inhibition of pad swelling)

First: COc1ccc(-n2nc(CCC(=O)NCCO)cc2-c2ccc(Cl)cc2)cc1 [Compound 65]
Second: CCOc1ccc(-n2nc(CCC(=O)O)cc2-c2ccc(Cl)cc2)cc1 [Compound 72]
The inhibition in vivo at 15 mg/kg of the first is lower: 21% for the first, 71% for the second.

Work on Nc1ccc(-n2nc(CCCO)cc2-c2ccc(Cl)cc2)cc1 [Compound 69] yielded an inhibition in vivo at 15 mg/kg of 17%.

Same assay, conditions: po, 336 h; 20 mpk p.o., rat; read-out: % INH. p.o. (percentage inhibition of pad swelling)

For COc1ccc(-n2nc(CCCOC(=O)CC(C)=O)cc2-c2ccc(Cl)cc2)cc1 [Compound 59, 3-(3-Acetoacetoxypropyl)-5-(4-chlorophenyl)-1-(4-methoxyphenyl) pyrazole], the inhibition in vivo at 20 mg/kg was 48%.

Same assay, conditions: po, 336 h; 25 mpk p.o., rat; read-out: % INH. p.o. (percentage inhibition of pad swelling)

Compared with COc1ccc(-n2nc(CCCOC(=O)CCc3cc(-c4ccc(Cl)cc4)n(-c4ccc(OC)cc4)n3)cc2-c2ccc(Cl)cc2)cc1 [Compound 16, 3-[5-(4-Chlorophenyl)-1-(4-methoxyphenyl)-3-pyrazolyl] propyl 3-[5-(4-Chlorophenyl)-1-(4-methoxyphenyl)-3-pyrazolyl] propionate], COc1ccc(-n2nc(CCC(=O)Nc3ccc(O)cc3)cc2-c2ccc(Cl)cc2)cc1 [Compound 34] is lower in inhibition in vivo at 25 mg/kg: 82% for the first, 21% for the second.

Going from O=C(O)CCc1cc(-c2ccc(Cl)cc2)n(-c2ccccc2)n1 [Compound 17, 3-[5-(4-Chlorophenyl)-1-phenyl-3-pyrazolyl]propionic acid] to COc1ccc(-n2nc(CCC(N)=O)cc2-c2ccc(Cl)cc2)cc1 [Compound 31], the inhibition in vivo at 25 mg/kg rises from 50% to 75%.

Going from COCCCc1cc(-c2ccc(Cl)cc2)n(-c2ccc(OC)cc2)n1 [Compound 24, 3-[5-(4-Chlorophenyl)-1-(4-methoxyphenyl)-3-pyrazolyl] propyl methyl ether] to COc1ccc(-n2nc(CCC(=O)N(C)OC)cc2-c2ccc(Cl)cc2)cc1 [Compound 44], the inhibition in vivo at 25 mg/kg rises from 64% to 69%.

Going from COC(=O)c1ccc(/C=C/CCc2cc(-c3ccc(Cl)cc3)n(-c3ccc(OC)cc3)n2)cc1 [Compound 25, 3-[4-(4-Carbomethoxyphenyl)-3(E)-butenyl]-5-(4-chlorophenyl)-1-(4-methoxyphenyl) pyrazole] to COc1ccc(-n2nc(CCC(=O)NO)cc2-c2ccc(Cl)cc2)cc1 [Compound 29, 3-[5-(4-Chlorophenyl)-1-(4-methoxyphenyl)-3-pyrazolyl]-N-hydroxypropanamide], the inhibition in vivo at 25 mg/kg rises from 18% to 91%.

Going from COc1ccc(-n2nc(CCC=NO)cc2-c2ccc(Cl)cc2)cc1 [Compound 26, 5-(4-Chlorophenyl)-3-(3-oximinopropyl)-1-(4-methoxyphenyl) pyrazole] to COc1ccc(-n2nc(CC/C=C\CCCC(=O)O)cc2-c2ccc(Cl)cc2)cc1 [Compound 32, Sodium 8-[5-(4-Chlorophenyl)-1-(4-methoxyphenyl)-3-pyrazolyl]-5(Z)-octenoate], the inhibition in vivo at 25 mg/kg falls from 79% to 69%.

Compared with CCN(CC)C(=O)CCc1cc(-c2ccc(Cl)cc2)n(-c2ccc(OC)cc2)n1 [Compound 28, 3-[5-(4-Chlorophenyl)-1-(4-methoxyphenyl)-3-pyrazolyl]-N,N-diethylpropanamide], COc1ccc(-n2nc(CCC(=O)N(O)C(C)(C)C)cc2-c2ccc(Cl)cc2)cc1 [Compound 58, 3-[5-(4-chlorophenyl)-1-(4-methoxyphenyl)-3-pyrazolyl]-N-tert-butyl-N-hydroxypropanamide] is higher in inhibition in vivo at 25 mg/kg: 44% for the first, 47% for the second.

Going from COc1ccc(-n2nc(CCCO)cc2-c2ccc(F)cc2)cc1 [Compound 30] to COc1ccc(-n2nc(CCC(=O)N(C)O)cc2-c2ccc(F)cc2)cc1 [Compound 45, 3-[5-(4-Fluorophenyl)-1-(4-methoxyphenyl)-3-pyrazolyl]-N-hydroxy-N-methyl propanamide], the inhibition in vivo at 25 mg/kg rises from 42% to 51%.

Compared with OCCCc1cc(-c2ccc(Cl)cc2)n(-c2ccc(Br)cc2)n1 [Compound 35, 1-(4-bromophenyl)-5-(4-chlorophenyl)-3-(3-hydroxypropyl) pyrazole], Cc1ccc(-n2nc(CCCO)cc2-c2ccc(Cl)cc2)cc1 [Compound 37] is lower in inhibition in vivo at 25 mg/kg: 65% for the first, 41% for the second.

Going from CSc1ccc(-n2nc(CCCO)cc2-c2ccc(Cl)cc2)cc1 [Compound 47] to OCCCc1cc(-c2ccc(Cl)cc2)n(-c2ccccc2C(F)(F)F)n1 [Compound 60], the inhibition in vivo at 25 mg/kg falls from 48% to 8%.

First: COc1ccc(-n2nc(CCCO)cc2-c2ccc(-c3ccccc3)cc2)cc1 [Compound 54]
Second: COc1ccc(-n2nc(CCC(=O)NCC(=O)O)cc2-c2ccc(Cl)cc2)cc1 [Compound 66, N-Carboxymethyl-3-[5-(4-chlorophenyl)-1-(4-methoxyphenyl)-3-pyrazolyl]propanamide]
The inhibition in vivo at 25 mg/kg of the first is lower: 36% for the first, 62% for the second.

In the case of COc1ccc(-n2nc(CCC(=O)ONC(C)(C)C)cc2-c2ccc(Cl)cc2)cc1 [Compound 57, 0-[2-[5-(4-Chlorophenyl)-1-(4-methoxyphenyl)-3-pyrazolyl]ethylcarbonyl]-N-tert-butylhydroxylamine], the inhibition in vivo at 25 mg/kg is reported as 87%.

Same assay, conditions: po, 336 h; 30 mpk p.o., rat; read-out: % INH. p.o. (percentage inhibition of pad swelling)

CCCCCOc1ccc(-n2nc(CCCO)cc2-c2ccc(Cl)cc2)cc1 [Compound 51] showed an inhibition in vivo at 30 mg/kg of 6.4%.

Same assay, conditions: po, 336 h; 40 mpk p.o., rat; read-out: % INH. p.o. (percentage inhibition of pad swelling)

First: COC(=O)CCc1cc(-c2ccc(Cl)cc2)n(-c2ccc(OC)cc2)n1 [Compound 19, Methyl 3-[5-(4-chlorophenyl)-1-(4-methoxyphenyl)-3-pyrazolyl] propionate]
Second: CNOC(=O)CCc1cc(-c2ccc(Cl)cc2)n(-c2ccc(OC)cc2)n1 [Compound 53, 0-[2-[5-(4-Chlorophenyl)-1-(4-methoxyphenyl)-3-pyrazolyl]ethyl-carbonyl]-N-methylhydroxylamine]
The inhibition in vivo at 40 mg/kg of the first is lower: 69% for the first, 94% for the second.

Going from COc1ccc(-n2nc(CCC(C)O)cc2-c2ccc(Cl)cc2)cc1 (stereo not shown) [Compound 20, 5-(4-Chlorophenyl)-3-(3-hydroxybutyl)-1-(4-methoxyphenyl) pyrazole] to COc1ccc(-n2nc(CCC(C)=O)cc2-c2ccc(Cl)cc2)cc1 [Compound 23, 5-(4-Chlorophenyl)-1-(4-methoxyphenyl)-3-(3-oxobutyl)pyrazole], the inhibition in vivo at 40 mg/kg rises from 19% to 53%.

COc1ccc(-n2nc(CC/C=C\CCCC(N)=O)cc2-c2ccc(Cl)cc2)cc1 [Compound 38] and O=[N+]([O-])c1ccc(-n2nc(CCCO)cc2-c2ccc(Cl)cc2)cc1 [Compound 48] are the same in inhibition in vivo at 40 mg/kg: 40% for the first, 40% for the second.

In the case of CN(O)C(=O)CCc1cc(-c2ccc(Cl)cc2)n(-c2ccccc2)n1 [Compound 67, 3-[5-(4-Chlorophenyl)-1-phenyl-3-pyrazolyl]-N-hydroxy-N-methyl propanamide], the inhibition in vivo at 40 mg/kg is reported as 30%.

Same assay, conditions: po, 336 h; 50 mpk p.o., rat; read-out: % INH. p.o. (percentage inhibition of pad swelling)

First: OCCCc1cc(-c2ccc(Cl)cc2)n(-c2ccccc2)n1 [Compound 1]
Second: OCCCc1cc(-c2ccccc2)n(-c2ccc(Cl)cc2)n1 [Compound 21]
The inhibition in vivo at 50 mg/kg of the first is higher: 62% for the first, 52% for the second.

First: OCCCc1cc(-c2ccc(Cl)cc2)n(-c2ccc(Cl)cc2)n1 [Compound 4]
Second: OCCCc1cc(-c2ccc(Cl)cc2)n(-c2ccc(F)cc2)n1 [Compound 62]
The inhibition in vivo at 50 mg/kg of the first is higher: 68% for the first, 31% for the second.

First: CC(=O)OCCCc1cc(-c2ccc(Cl)cc2)n(-c2ccccc2)n1 [Compound 7, 3-(3-Acetoxypropyl)-5-(4-chlorophenyl)-1-phenylpyrazole]
Second: COc1ccccc1-n1nc(CCCO)cc1-c1ccc(Cl)cc1 [Compound 22]
The inhibition in vivo at 50 mg/kg of the first is higher: 54% for the first, 33% for the second.

Going from OCCCc1cc(-c2ccc(Cl)cc2)n(-c2ccc(Cl)c(Cl)c2)n1 [Compound 8] to CS(=O)(=O)c1ccc(-n2nc(CCCO)cc2-c2ccc(Cl)cc2)cc1 [Compound 36], the inhibition in vivo at 50 mg/kg falls from 41% to 40%.

Compound COc1ccc(-n2nc(CCCO)cc2-c2ccccc2)cc1 [Compound 10] has an inhibition in vivo at 50 mg/kg of 30%.
